# From article PMC8483441 (Journal of Medicinal Chemistry, 2021)
# Like-named read-outs stand apart in the source and are kept apart here. Square brackets hold non-standard residues; d marks the D form. Ends that are not written are not given here. Peptide text beside a SMILES is read from it. Orn = NCCC[C@H](N)C(=O)O
# Key:
# horse red blood cells = experiment: Hemolytic activity; format: cell-based
# Description: The peptide toxicity was determined detecting the disruption of horse red blood cells, following a previous assay report.[35] 10-fold diluted cells in PBS were centrifuged three times at 800g to eliminate the hemoglobin from disrupted cells. After the last resuspension, erythrocytes were incubated with the peptides for 4 h at 37 °C. The detection was done measuring the supernatant absorbance in a VICTOR3 multilabel plate reader (Perkin Elmer, Waltham, Massachusetts) at 540 nm in a microplate reader. Percentage of hemolysis was calculated through a pattern done with dilutions of total cell lysis done with a 1% Triton X-100 buffer. Results are the average of three independent studies.
# A. baumannii = format: cell-based, Acinetobacter baumannii; conditions: 24 h
# Description: (§1) Human serum was purchased from Sigma (St Louis, USA).
# (§2) Incubations were kept at 37 °C for 24 h. Results are the average of three independent studies.
# MRC-5 cells = experiment: Cytotoxicity in mammalian cells (MTT assay); format: cell-based
# Description: (§3) MRC-5 cells were grown in Eagle’s minimum essential medium (MEMα), supplemented with 10% fetal bovine serum (FBS). 96-well plates were seeded with 3 × 10^4 cells/well and cultured overnight in order to get cells adhered into the plate and then incubated with two-fold peptide serial dilutions. After 4 h of incubation, the medium containing the peptides was replaced by MEMα supplemented with FBS and 3-(4,5-dimethylthiazol-2-yl)-2,5-diphenyltetrazolium bromide (MTT) at 0.4 mg/mL and incubated for 150 min. Detection of formazan crystals in the living cells was done by cell disruption by addition of 200 μL of dimethyl sulfoxide (DMSO) followed by absorbance measuring at 600 nm in a Tecan Infinite F Nano+ microplate reader (Tecan, Germany). Results are the average of three independent studies.
# [1] = Cytotoxicity in mammalian cells (MTT assay); format: cell-based; conditions: MRC-5 cytotoxicity (IC50)
# Description: as §3
# Acinetobacter baumannii = format: cell-based; conditions: 24 h
# Description: as §2
# Escherichia coli = format: cell-based; conditions: 24 h
# Description: as §2
# Salmonella enterica = format: cell-based; conditions: 24 h
# Description: as §2
# E. coli = format: cell-based, Escherichia coli; conditions: 24 h
# Description: as §1, §2
# Pseudomonas sp. [2] = experiment: Minimum bactericidal concentration (MBC); format: cell-based; conditions: 50 μL from MIC wells seeded into Petri plates, 24 h; lowest concentration without detectable growth
# Description: as §2
# Shigella flexneri = conditions: 50 μL from MIC wells seeded into Petri plates, 24 h; lowest concentration without detectable growth
# Description: The antibiotic activity was defined by the minimum peptide concentration where the microorganism is unable to grow. The assay was done in polypropylene 96-well plates (Greiner, Frickenhausen, Germany) to avoid peptide binding to plate wells. Peptides were dissolved in water containing 0.4% w/v bovine serum albumin (BSA) and 0.02% v/v glacial acetic acid to prevent self-aggregation, following the reference protocol by Wiegand et al.,[42] based on the classical microtiter broth dilution recommended by the National Committee of Laboratory Safety and Standards (NCLSS). Initial bacteria inoculum was adjusted to 5 × 10^5 CFU/mL in Mueller-Hinton (MH) medium. Incubations were kept at 37 °C for 24 h. Results are the average of three independent studies. […] To determine the MBC, 50 μL from all wells were seeded into Petri plates and incubated for 24 h. The MBC concentration was attributed to the lowest concentration without detectable bacterial growth for each peptide.
# Pseudomonas sp. [3] = experiment: MIC of peptides incubated with human serum; format: cell-based; conditions: peptide incubated with human serum 1:1; 10^6 cfu/mL Pseudomonas sp., 4 h
# Description: as §2
# S. flexneri = conditions: 24 h
# Text: Purified horse red blood cells were acquired from Thermo Fisher Scientific (Hampshire, England). Human serum was purchased from Sigma (St Louis, USA). E. coli was obtained from the Coli Genetic Stock Center (BW25113). S. flexneri (ATCC 29903), A. baumannii (ATCC 15308), Pseudomonas sp. (ATCC 15915), and S. enterica (ATCC 14028) were obtained from the CECT (Valencia, Spain). Clinical strains were supplied by the Vall d’Hebron Hospital (Barcelona, Spain). MRC5 fibroblasts were obtained from the Cytometry and Cell Culture Facility (SCAC, UAB) and originally purchased from ATCC.
# The antibiotic activity was defined by the minimum peptide concentration where the microorganism is unable to grow. The assay was done in polypropylene 96-well plates (Greiner, Frickenhausen, Germany) to avoid peptide binding to plate wells. Peptides were dissolved in water containing 0.4% w/v bovine serum albumin (BSA) and 0.02% v/v glacial acetic acid to prevent self-aggregation, following the reference protocol by Wiegand et al.,[42] based on the classical microtiter broth dilution recommended by the […]. Initial bacteria inoculum was adjusted to 5 × 10^5 CFU/mL in Mueller-Hinton (MH) medium. Incubations were kept at 37 °C for 24 h. Results are the average of three independent studies. MIC assays in the presence of serum were performed by incubating the peptide with human serum at a 1:1 ratio. Then, 10^6 cfu/mL of Pseudomonas sp. were incubated with serial dilutions of the peptides for 4 h. To determine the MBC, 50 μL from all wells were seeded into Petri plates and incubated for 24 h. The MBC concentration was attributed to the lowest concentration without detectable bacterial growth for each peptide.
# Pseudomonas sp. [4] = experiment: MIC, broth microdilution; format: cell-based; conditions: Pseudomonas sp. ATCC 15915; Mueller-Hinton medium, 5 × 10^5 CFU/mL, 37 °C, 24 h; average of three independent studies
# Description: as §1, §2
# S. enterica = format: cell-based, Salmonella enterica; conditions: 24 h
# Description: as §1, §2
# E. coli 116878 = experiment: MIC, clinical bacterial strain; format: cell-based
# Description: as §1, §2
# E. coli cf073 = experiment: MIC, clinical bacterial strain; format: cell-based
# Description: as §1, §2
# S. typhimurium 365 = experiment: MIC, clinical bacterial strain; format: cell-based
# Description: as §1, §2
# A. baumannii 3862 = experiment: MIC, clinical bacterial strain; format: cell-based
# Description: as §1, §2
# S. typhimurium 324 = experiment: MIC, clinical bacterial strain; format: cell-based
# Description: as §1, §2
# A. baumannii 3878 = experiment: MIC, clinical bacterial strain; format: cell-based
# Description: as §1, §2
# P. aeruginosa 827632 = experiment: MIC, clinical bacterial strain; format: cell-based
# Description: as §1, §2
# A. baumannii 3879 = experiment: MIC, clinical bacterial strain; format: cell-based
# Description: as §1, §2
# A. baumannii 3880 = experiment: MIC, clinical bacterial strain; format: cell-based
# Description: as §1, §2
# P. aeruginosa 827651 = experiment: MIC, clinical bacterial strain; format: cell-based
# Description: as §1, §2
Molecule,"hemolysis % (250 μM peptide) (horse red blood cells; red cells of horse, 4 h, 250)",MIC A. baumannii (A. baumannii),IC50 [1],MBC Acinetobacter baumannii (Acinetobacter baumannii),MBC Escherichia coli (Escherichia coli),MBC Salmonella enterica (Salmonella enterica),MIC E. coli (E. coli),MBC Pseudomonas sp. (Pseudomonas sp. [2]),MBC Shigella flexneri (Shigella flexneri),"MIC in Pseudomonas sp., peptides incubated with human serum (Pseudomonas sp. [3])",MIC S. flexneri (S. flexneri),MIC Pseudomonas sp. (Pseudomonas sp. [4]),MIC S. enterica (S. enterica),MIC E. coli 116878 (E. coli 116878),MIC E. coli cf073 (E. coli cf073),MIC S. typhimurium 365 (S. typhimurium 365),MIC A. baumannii 3862 (A. baumannii 3862),MIC S. typhimurium 324 (S. typhimurium 324),MIC A. baumannii 3878 (A. baumannii 3878),MIC P. aeruginosa 827632 (P. aeruginosa 827632),further results
CC[C@H](C)[C@H](NC(=O)[C@H](C)NC(=O)[C@H](CCCN)NC(=O)[C@H](CCSC)NC(=O)[C@H](C)NC(=O)[C@@H](NC(=O)[C@@H](NC(=O)[C@H](CCCN)NC(=O)[C@@H]1CCCN1C(=O)[C@H](CO)NC(=O)[C@@H](NC(=O)[C@H](Cc1c[nH]cn1)NC(=O)[C@H](CCC(N)=O)NC(=O)[C@@H](NC(=O)[C@H](C)NC(=O)[C@H](Cc1ccccc1)NC(=O)[C@H](Cc1c[nH]c2ccccc12)NC(=O)[C@H](CCC(N)=O)NC(=O)[C@H](C)NC(=O)[C@H](CCCN)NC(=O)[C@@H](NC(=O)[C@H](Cc1ccccc1)NC(=O)[C@@H]1CCCN1C(=O)[C@@H](N)CCCN)[C@@H](C)O)[C@@H](C)CC)[C@@H](C)CC)[C@@H](C)O)[C@@H](C)CC)C(=O)N[C@@H](CC(N)=O)C(=O)N[C@@H](CC(N)=O)C(=O)N[C@@H](Cc1ccc(O)cc1)C(=O)N[C@@H](CCCN)C(=O)N[C@@H](Cc1c[nH]c2ccccc12)C(=O)N[C@@H](CCCN)C(N)=O [peptide 2] (H-[Orn]PFT[Orn]AQWFAIQHISP[Orn]TIAM[Orn]AINNY[Orn]W[Orn]-NH2),10 ± 2%,6.25 µM,≤ 180 µM,6.25 µM,6.25 µM,25 µM,6.25 µM,6.25 µM,12.5 µM,50 µM,12.5 µM,6.25 µM,25 µM,,,,,,,,hemolysis % (250 μM peptide) (horse red blood cells): 10%; IC50 (MRC-5 cells; 4 h): 113 ± 8 µM
CC[C@H](C)[C@H](NC(=O)[C@H](C)NC(=O)[C@H](CCCN)NC(=O)[C@H](CCSC)NC(=O)[C@H](C)NC(=O)[C@@H](NC(=O)[C@@H](NC(=O)[C@H](CCCN)NC(=O)[C@@H]1CCCN1C(=O)[C@H](CO)NC(=O)[C@@H](NC(=O)[C@H](Cc1c[nH]cn1)NC(=O)[C@H](CCC(N)=O)NC(=O)[C@@H](NC(=O)[C@H](C)NC(=O)[C@H](Cc1ccccc1)NC(=O)[C@H](Cc1c[nH]c2ccccc12)NC(=O)[C@H](CCC(N)=O)NC(=O)[C@H](C)NC(=O)[C@H](CCCN)NC(=O)[C@@H](NC(=O)[C@H](Cc1ccccc1)NC(=O)[C@H]1CCCN1C(=O)[C@@H](N)CCCN)[C@@H](C)O)[C@@H](C)CC)[C@@H](C)CC)[C@@H](C)O)[C@@H](C)CC)C(=O)N[C@@H](CC(N)=O)C(=O)N[C@@H](CC(N)=O)C(=O)N[C@@H](Cc1ccc(O)cc1)C(=O)N[C@@H](CCCN)C(=O)N[C@@H](Cc1c[nH]c2ccccc12)C(=O)N[C@@H](CCCN)C(N)=O [peptide 6] (H-[Orn][dP]FT[Orn]AQWFAIQHISP[Orn]TIAM[Orn]AINNY[Orn]W[Orn]-NH2),1.1 ± 0.9%,12.5 µM,230 ± 40 µM,12.5 µM,3.13 µM,50 µM,3.13 µM,1.56 µM,50 µM,,50 µM,1.56 µM,50 µM,25 µM,6.25 µM,25 µM,1.56 µM,25 µM,0.78 µM,>100 µM,MIC A. baumannii 3879 (A. baumannii 3879): 3.13 µM; MIC A. baumannii 3880 (A. baumannii 3880): 12.5 µM; MIC P. aeruginosa 827651 (P. aeruginosa 827651): 25 µM
"RPFTRAQWFAIQHISPRTIAMRAINNYRWR-NH2 [peptide 1, hECP30]",,,23 ± 4 µM,,1.56 µM,12.5 µM,1.56 µM,1.56 µM,3.13 µM,25 µM,3.13 µM,1.56 µM,12.5 µM,6.25 µM,3.13 µM,6.25 µM,0.78 µM,6.25 µM,1.56 µM,12.5 µM,"hemolytic activity at 10-fold the MIC (horse red blood cells; red cells of horse, 4 h): below 10%; MIC A. baumannii (A. baumannii; A. baumannii ATCC 15308, Mueller-Hinton medium, 5 × 10^5 CFU/mL, 37 °C, average of three independent studies): 1.56 µM; MIC A. baumannii 3879 (A. baumannii 3879): 1.56 µM; MIC A. baumannii 3880 (A. baumannii 3880): 1.56 µM; MIC P. aeruginosa 827651 (P. aeruginosa 827651): 25 µM; MBC Acinetobacter baumannii (Acinetobacter baumannii; 50 μL from MIC wells seeded into Petri plates, lowest concentration without detectable growth): 1.56 µM"
CC[C@H](C)[C@H](NC(=O)[C@H](C)NC(=O)[C@H](CCCN)NC(=O)[C@H](CCSC)NC(=O)[C@H](C)NC(=O)[C@@H](NC(=O)[C@@H](NC(=O)[C@H](CCCN)NC(=O)[C@@H]1CCCN1C(=O)[C@H](CO)NC(=O)[C@@H](NC(=O)[C@H](Cc1c[nH]cn1)NC(=O)[C@H](CCC(N)=O)NC(=O)[C@@H](NC(=O)[C@H](C)NC(=O)[C@H](Cc1ccccc1)NC(=O)[C@H](Cc1c[nH]c2ccccc12)NC(=O)[C@H](CCC(N)=O)NC(=O)[C@H](C)NC(=O)[C@H](CCCN)NC(=O)[C@@H](NC(=O)[C@@H](N)Cc1ccccc1)[C@@H](C)O)[C@@H](C)CC)[C@@H](C)CC)[C@@H](C)O)[C@@H](C)CC)C(=O)N[C@@H](CC(N)=O)C(=O)N[C@@H](CC(N)=O)C(=O)N[C@@H](Cc1ccc(O)cc1)C(=O)N[C@@H](CCCN)C(=O)N[C@@H](Cc1c[nH]c2ccccc12)C(=O)N[C@@H](CCCN)C(N)=O [peptide 5] (H-FT[Orn]AQWFAIQHISP[Orn]TIAM[Orn]AINNY[Orn]W[Orn]-NH2),11 ± 4%,>100 µM,> 300 µM,> 100 µM,25 µM,> 100 µM,25 µM,25 µM,50 µM,,50 µM,25 µM,>100 µM,,,,,,,,MRC-5 cytotoxicity (IC50) (MRC-5 cells): No toxicity was detected
